The NIST ThermoML archive (doi:10.1021/je060336+)
Numbers after ± are expanded uncertainties.

Conditions: Liquid

vapor or sublimation pressure (313.15 K) [kPa]	vapor or sublimation pressure (323.15 K) [kPa]	vapor or sublimation pressure (333.15 K) [kPa]	vapor or sublimation pressure (343.15 K) [kPa]	vapor or sublimation pressure (353.15 K) [kPa]	vapor or sublimation pressure (363.15 K) [kPa]	SMILES
1831 ± 14	2302 ± 18	2874 ± 22	3553 ± 28	–	–	CC(F)(F)F [1,1,1-trifluoroethane]
377 ± 3	495 ± 4	639 ± 5	810 ± 6	1012 ± 8	1250 ± 10	CCCC [butane]
